From PubChem BioAssay AID2060500 (Molecular Pharmacology Branch, DTP, NCI, 2025)

System: 596521-263-R-J1-PDC complex spheroids, viability % of control
Assay: Anticancer human tumor 596521-263-R-J1-PDC patient-derived soft tissue sarcoma cell line growth inhibition [GQUAD]
Conditions: for IC50: curve of first compound; for viability, T/C: stronger effect = lower value
Description: DNA G-quadruplex Stabilizer Agents in Combinations in Complex Spheroids
A high-throughput screen of multi-cell type tumor spheroids was designed to identify active combinations of DNA G-quadruplex stabilizer agents and targeted small molecules. Complex spheroids include a stromal component modeled by human endothelial cells (HUVEC) and fibroblasts modeled by human mesenchymal stem cells (MSCs). The concentration ranges selected for each drug and investigational agent were based upon clinically achievable concentrations if the clinical Cmax of the agent was known.
Compounds. The drugs and investigational agents: pidnarulex (CX-5461; NSC782164), APTO-253 (NSC789042), BRACO-19 (NSC847499), peposertib (NSC802822), ceralasertib (NSC780249), elimusertib (NSC800525), camonsertib (NSC841442), AZD-1390 (NSC803789), olaparib (NSC753686), talazoparib (NSC767125), ART-558 (NSC835418), sotorasib (NSC818433), MRTX-1133 (NSC836407), SN-38 (NSC673596), topotecan (NSC609699), etoposide (NSC141540), doxorubicin (NSC123127), gemcitabine (NSC613327), 5-fluorouracil (NSC19893), paclitaxel (NSC125973), vemurafenib (NSC761431), panobinostat (NSC761190), R-306465 (JNJ-16241199; NSC773264), adavosertib (NSC754352), TP-3654 (NSC805149), carboplatin (NSC241240), KSQ-4279 (NSC840948), and staurosporine (NSC755774) were obtained from the National Cancer Institute (NCI) Developmental Therapeutics Program Chemical Repository (34). The FDA-approved anticancer drug set is available from the NCI Developmental Therapeutics Program. […] The stock solutions were prepared in dimethyl sulfoxide (DMSO, Sigma-Aldrich, St. Louis, MO, cat. D2650) at 800-fold the tested concentration and stored at -70 degrees C prior to their use. All drugs and investigational agents were tested over a range starting from a high concentration at or near the clinical Cmax and decreasing in half-log increments. If the clinical Cmax for an agent had not been determined, the highest concentration tested was 10 microM.
2.3 Cell Culture. All cells were maintained in an incubator at 37 degrees C and 5% CO2 with 95% humidity. The PDC lines were cultured according to standard operating procedures established by the NCI PDMR. All PDCs were thawed and cultured in Matrigel-coated flasks prepared with a working solution of 1X Ham's F-12 nutrient mix, without supplementation (Invitrogen, cat. 11765054), 100 U/mL penicillin-streptomycin (Invitrogen, cat. 15140122), and 2.5% Matrigel (Corning Inc., cat. 354248) for the first three passages. The 857933-349-R-J2-PDC line was cultured in 6C/Colon 1B media, which includes advanced DMEM/F-12 (Thermo Fisher Scientific, cat. 12634028), 10 mM HEPES (Thermo Fisher Scientific, cat. 15630080), 1X GlutaMAX supplement (Thermo Fisher Scientific, cat. 35050061), 0.1 mg/mL primocin (InvivoGen, cat. ant-pm-2), 10% defined fetal bovine serum, heat inactivated (HyClone Laboratories Inc., cat. SH30070.03HI), 50% L-WRN conditioned media (ATCC, cat. CRL-3276), 1.25 mM N-Acetyl-L-cysteine (Sigma-Aldrich, cat. A9165), 10 mM nicotinamide (Sigma-Aldrich, cat. N0636), 1X B-27 supplement (Thermo Fisher Scientific, cat. 17504044), 1X N-2 supplement (Thermo Fisher Scientific, cat. 17502048), 10 microM Y-27632 dihydrochloride (Tocris Bioscience, cat. 1254), and 50 ng/mL human EGF recombinant protein (Thermo Fisher Scientific, cat. PHG0311). The 485176-168-R4-J1-PDC line was cultured in Panc media, which includes all 6C/Colon 1B media components plus 100 ng/mL human FGF-10 (Thermo Fisher Scientific, cat. 100-26), 500 nM SB-431542 (Selleckchem, cat. S1067), and gastrin (Tocris, cat. 3006).
[…]

[1] = second compound 0.0316 µM, first compound 0.0316 µM
[2] = second compound 0.0316 µM, first compound 0.316 µM
[3] = second compound 0.1 µM, first compound 0.0316 µM
[4] = second compound 0.1 µM, first compound 0.316 µM
[5] = second compound 0.316 µM, first compound 0.0316 µM
[6] = second compound 0.316 µM, first compound 0.316 µM
[7] = second compound 1 µM, first compound 0.0316 µM
[8] = second compound 1 µM, first compound 0.316 µM
[9] = second compound 3.16 µM, first compound 0.0316 µM
[10] = second compound 3.16 µM, first compound 0.316 µM
[11] = second compound 10 µM, first compound 0.0316 µM
[12] = second compound 10 µM, first compound 0.316 µM
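Further: spheroids exposed to drugs for 7 days before viability reading.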

In the case of `C=CC(=O)N1CCN(c2nc(=O)n(-c3c(C)ccnc3C(C)C)c3nc(-c4c(O)cccc4F)c(F)cc23)C(C)C1` (centres undefined) + CN(C)c1ccc(Nc2c3ccc(NC(=O)CCN4CCCC4)cc3nc3cc(NC(=O)CCN4CCCC4)ccc23)cc1, the IC50 (second compound 0.0316 µM) is reported as greater than 10000 nM, the IC50 (second compound 0.1 µM) is reported as greater than 10000 nM and the IC50 (second compound 0.316 µM) is reported as greater than 10000 nM. The IC50 (second compound 1 µM) was greater than 10000 nM, the IC50 (second compound 3.16 µM) was greater than 10000 nM and the IC50 (second compound 10 µM) was greater than 10000 nM. It also gave a viability, T/C [1] of 114%, a viability, T/C (second compound 0.0316 µM, first compound 0.1 µM) of 94.2% and a viability, T/C [2] of 112%. The viability, T/C (second compound 0.0316 µM, first compound 1 µM) was 101%, the viability, T/C (second compound 0.0316 µM, first compound 3.16 µM) was 98.2% and the viability, T/C (second compound 0.0316 µM, first compound 10 µM) was 69.6%. For the same molecule, the viability, T/C [3] was 110%, the viability, T/C (second compound 0.1 µM, first compound 0.1 µM) was 102% and the viability, T/C [4] was 96.9%. It also gave a viability, T/C (second compound 0.1 µM, first compound 1 µM) of 105%, a viability, T/C (second compound 0.1 µM, first compound 3.16 µM) of 103% and a viability, T/C (second compound 0.1 µM, first compound 10 µM) of 69.2%. The viability, T/C [5] was 110%, the viability, T/C (second compound 0.316 µM, first compound 0.1 µM) was 99.5% and the viability, T/C [6] was 98.8%. It also gave a viability, T/C (second compound 0.316 µM, first compound 1 µM) of 97.3%, a viability, T/C (second compound 0.316 µM, first compound 3.16 µM) of 96.9% and a viability, T/C (second compound 0.316 µM, first compound 10 µM) of 77.9%. It also gave a viability, T/C [7] of 96.2%, a viability, T/C (second compound 1 µM, first compound 0.1 µM) of 108% and a viability, T/C [8] of 103%. It also gave a viability, T/C (second compound 1 µM, first compound 1 µM) of 103%, a viability, T/C (second compound 1 µM, first compound 3.16 µM) of 93.7% and a viability, T/C (second compound 1 µM, first compound 10 µM) of 83.6%. For the same molecule, the viability, T/C [9] was 86.6%, the viability, T/C (second compound 3.16 µM, first compound 0.1 µM) was 103% and the viability, T/C [10] was 94.2%. It also gave a viability, T/C (second compound 3.16 µM, first compound 1 µM) of 92.1%, a viability, T/C (second compound 3.16 µM, first compound 3.16 µM) of 111% and a viability, T/C (second compound 3.16 µM, first compound 10 µM) of 67.6%. The viability, T/C [11] was 71.3%, the viability, T/C (second compound 10 µM, first compound 0.1 µM) was 70.3% and the viability, T/C [12] was 77.2%. It also gave a viability, T/C (second compound 10 µM, first compound 1 µM) of 75.6%, a viability, T/C (second compound 10 µM, first compound 3.16 µM) of 76.3% and a viability, T/C (second compound 10 µM, first compound 10 µM) of 58.3%.
`Cc1[nH]c2ccccc2c1CCNCc1ccc(/C=C/C(=O)NO)cc1` + CN(C)c1ccc(Nc2c3ccc(NC(=O)CCN4CCCC4)cc3nc3cc(NC(=O)CCN4CCCC4)ccc23)cc1 was tested, and the IC50 (second compound 0.0316 µM) was 46.6 nM, the IC50 (second compound 0.1 µM) was 42.4 nM and the IC50 (second compound 0.316 µM) was 31.8 nM. The IC50 (second compound 1 µM) was 36.8 nM, the IC50 (second compound 3.16 µM) was 24.9 nM and the IC50 (second compound 10 µM) was 13.5 nM. The viability, T/C (second compound 0.0316 µM, first compound 0.000999 µM) was 102%, the viability, T/C (second compound 0.0316 µM, first compound 0.00316 µM) was 89.2% and the viability, T/C (second compound 0.0316 µM, first compound 0.00999 µM) was 79.8%. The viability, T/C [1] was 58.1%, the viability, T/C (second compound 0.0316 µM, first compound 0.0999 µM) was 32.9% and the viability, T/C [2] was 1.76%. It also gave a viability, T/C (second compound 0.1 µM, first compound 0.000999 µM) of 94.7%, a viability, T/C (second compound 0.1 µM, first compound 0.00316 µM) of 94.9% and a viability, T/C (second compound 0.1 µM, first compound 0.00999 µM) of 78.1%. For the same molecule, the viability, T/C [3] was 58.4%, the viability, T/C (second compound 0.1 µM, first compound 0.0999 µM) was 27.4% and the viability, T/C [4] was 2.91%. The viability, T/C (second compound 0.316 µM, first compound 0.000999 µM) was 102%, the viability, T/C (second compound 0.316 µM, first compound 0.00316 µM) was 81.3% and the viability, T/C (second compound 0.316 µM, first compound 0.00999 µM) was 77%. The viability, T/C [5] was 50.4%, the viability, T/C (second compound 0.316 µM, first compound 0.0999 µM) was 22.8% and the viability, T/C [6] was 1.67%. For the same molecule, the viability, T/C (second compound 1 µM, first compound 0.000999 µM) was 90.6%, the viability, T/C (second compound 1 µM, first compound 0.00316 µM) was 88.3% and the viability, T/C (second compound 1 µM, first compound 0.00999 µM) was 75.6%. The viability, T/C [7] was 54.8%, the viability, T/C (second compound 1 µM, first compound 0.0999 µM) was 23.3% and the viability, T/C [8] was 1.36%. It also gave a viability, T/C (second compound 3.16 µM, first compound 0.000999 µM) of 78.6%, a viability, T/C (second compound 3.16 µM, first compound 0.00316 µM) of 82.4% and a viability, T/C (second compound 3.16 µM, first compound 0.00999 µM) of 64.7%. It also gave a viability, T/C [9] of 46.2%, a viability, T/C (second compound 3.16 µM, first compound 0.0999 µM) of 18.4% and a viability, T/C [10] of 1.06%. It also gave a viability, T/C (second compound 10 µM, first compound 0.000999 µM) of 62.2%, a viability, T/C (second compound 10 µM, first compound 0.00316 µM) of 53.7% and a viability, T/C (second compound 10 µM, first compound 0.00999 µM) of 57.4%. It also gave a viability, T/C [11] of 36.4%, a viability, T/C (second compound 10 µM, first compound 0.0999 µM) of 13.3% and a viability, T/C [12] of 0.5%.
